Data: patent US10500198B2, “Bis-benzylidine piperidone proteasome inhibitor with anticancer activity” (The Johns Hopkins University, priority 2013, dated 2019)
Where a name gives a salt, the structure may show the parent alone. Blank lines part the entries; values can stand above or below the compound they belong to.

Tests used:
HeLa cells = assay: Cell surface HSP90 staining; format: cell-based, human
Excerpt: Cell surface HSP90 was detected by staining with purified anti-HSP90 mAb (Stressgen), followed by PE-conjugated anti-mouse IgG1. The data were acquired with a FACSCalibur and analyzed using CellQuest software.

NCl-H929 = assay: Cell viability after 48-hr treatment (Table 1); format: cell-based, human; settings: Homo sapiens, XTT assay
Procedure: (§1) Cells seeded at the concentration of 1,000 cells/well for HeLa, 5,000 cells/well for ES2 and HCT116 and 10,000-20,000 cells/well for other cell lines in 100 μL medium in 96-well plate were treated with RA series compounds at specified concentrations. […]

HT3 = assay: Cell viability after 48-hr treatment (Table 1); format: cell-based; settings: Homo sapiens, HT-3; 48-hr treatment; XTT assay; read-out: IC50, HT3
Procedure: as §1

HaCaT = assay: Cell viability after 48-hr treatment (Table 1); format: cell-based; settings: Homo sapiens, HaCaT; 48-hr treatment; XTT assay; read-out: IC50, HaCaT
Procedure: as §1

RPMI8226 = assay: Cell viability after 48-hr treatment (Table 1); format: cell-based; settings: Homo sapiens, RPMI-8226, XTT assay
Procedure: as §1

SiHa = assay: Cell viability after 48-hr treatment (Table 1); format: cell-based; settings: Homo sapiens, SiHa; 48-hr treatment; XTT assay; read-out: IC50, SiHa
Procedure: as §1

OVCAR3 = assay: Cell viability after 48-hr treatment (Table 1); format: cell-based, human; settings: Homo sapiens, OVCAR-3, XTT assay
Procedure: as §1, with “Cell viability was assayed using CellTiter 960 AQueous One Solution Reagent (Promega, Madison, Wis.). Cells” for “Cells”

HeLa = assay: Cell viability after 48-hr treatment (Table 1); format: cell-based, human; settings: Homo sapiens, HeLa; 48-hr treatment; XTT assay; read-out: IC50, HeLa
Procedure: as §1, with “Cell viability was assayed using CellTiter 960 AQueous One Solution Reagent (Promega, Madison, Wis.). Cells” for “Cells”

CasKi = assay: Cell viability after 48-hr treatment (Table 1); format: cell-based; settings: Homo sapiens, Ca-Ski; 48-hr treatment; XTT assay; read-out: IC50, CasKi
Procedure: (§2) Cell viability was assayed using CellTiter 960 AQueous One Solution Reagent (Promega, Madison, Wis.). Cells seeded at the concentration of 1,000 cells/well for HeLa, 5,000 cells/well for ES2 and HCT116 and 10,000-20,000 cells/well for other cell lines in 100 μL medium in 96-well plate were treated with RA series compounds at specified concentrations. After the indicated periods, cells were incubated according to the manufacturer's protocol with the MTS labeling mixture for 1-2 hr and absorbance at 490 nm measured using a Benchmark Plus microplate spectrophotometer (BIO-RAD).

HOK-16B = assay: Cell viability after 48-hr treatment (Table 1); format: cell-based; settings: 48-hr treatment; XTT assay; read-out: IC50, HOK-16B
Procedure: as §2

FaDu = assay: Cell viability after 48-hr treatment (Table 1); format: cell-based; settings: Homo sapiens, FaDu; 48-hr treatment; XTT assay; read-out: IC50, FaDu
Procedure: as §1, with “Cell viability was assayed using CellTiter 960 AQueous One Solution Reagent (Promega, Madison, Wis.). Cells” for “Cells”

MM.1S = assay: Cell viability after 48-hr treatment (Table 1); format: cell-based; settings: Homo sapiens, MM1.S, XTT assay
Procedure: as §1, with “Cell viability was assayed using CellTiter 960 AQueous One Solution Reagent (Promega, Madison, Wis.). Cells” for “Cells”

SKOV3 = assay: Cell viability after 48-hr treatment (Table 1); format: cell-based; settings: Homo sapiens, SK-OV-3; 48-hr treatment; XTT assay; read-out: IC50, SKOV3
Procedure: as §1, with “Cell viability was assayed using CellTiter 960 AQueous One Solution Reagent (Promega, Madison, Wis.). Cells” for “Cells”

C33A = assay: Cell viability after 48-hr treatment (Table 1); format: cell-based; settings: Homo sapiens, C-33-A; 48-hr treatment; XTT assay; read-out: IC50, C33A
Procedure: as §1, with “Cell viability was assayed using CellTiter 960 AQueous One Solution Reagent (Promega, Madison, Wis.). Cells” for “Cells”

U266 cells = assay: Active caspase-3 by FACS; format: cell-based; settings: 0.5 μM, 8 h
Procedure: U266 cells were treated with RA195 (0.5 μM) and Bz(0.5 μM) for the period of 8 h. Cells were stained for PE-conjugated Caspase-3 antibody and measured active caspase-3 by FACS.

[1] = test system: TNFα-induced NFκB activation in 293 cells; assay: NFκB/FL reporter assay; format: cell-based; settings: TNFα 10 ng/ml, 7 h
Procedure: 293 cells transiently transfected with either NFκB/FL (firefly luciferase reporter construct under control of an NFκB-driven promoter) or control CMV promoter-driven FL reporter construct were treated with compounds and TNFα (10 ng/ml) for 7 h. Upon the addition of luciferin, bioluminescence was measured in cell lysates using a luminometer. Results can be seen in FIG. 20.
293 cells transiently transfected with either NFκB/FL or control FL reporter genes were treated with compounds and TNFα (10 ng/ml) for 7 h. Upon the addition of luciferin, bioluminescence was measured in cell lysates using a luminometer.

NCI-H929 cells = assay: Active caspase-3 by FACS; format: cell-based, human; settings: 0.5 μM, 8 h
Procedure: NCI-H929 cells were treated with RA195 (0.5 μM) and Bz(0.5 μM) for the period of 8 h. Cells were stained for PE-conjugated Caspase-3 antibody and measured active caspase-3 by FACS.

[2] = test system: tetraubiquitin-firefly luciferase (4UbFL) reporter in HeLa cells; assay: Cell culture assay for luciferase (4UbFL reporter); format: cell-based, human; settings: 4 hr treatment
Procedure: Sub-confluent cultures of HeLa cells were transfected with 4UbFL or FL plasmids using Lipofectamine 2000 reagent (Life Technologies, Carlsbad, Calif.). […] Luciferase activity in cell lysate was determined with a luciferase assay kit (Promega, Madison, Wis.) according to the manufacturer's instructions. Bioluminescence was measured by using a Glomax Multidetection system (Promega, Madison, Wis., USA).
HeLa cells were transiently transfected with tetra ubiquitin-fused firefly luciferase (4UB-FL) plasmid. After 48 h, the transfected cells were treated with titrations of the indicated compounds for 4 h, and luciferase activity was measured. Data is expressed as a 4UB-FL fold change compared to untreated cells.

Structure (SMILES): N.N.[Cl][Pt][Cl] [cisplatin]
surface display of HSP90 (HeLa cells): did not induce surface display of HSP90

IC50 (NCl-H929): 75 nM
IC50 (RPMI8226): 150 nM
IC50 (OVCAR3): 2000 nM
IC50 (HeLa): 170 nM
IC50 (MM.1S): 50 nM
IC50 (SKOV3): > 2500 nM
Structure (SMILES): CC(=O)N[C@@H](Cc1ccccc1)C(=O)N1C/C(=C\c2ccc(Cl)c(Cl)c2)C(=O)/C(=C/c2ccc(Cl)c(Cl)c2)C1 [RA190Ac, 3,5-bis(3,4-dichlorobenzylidene)-1-(N-(1-oxo-S-3-phenyl-1-propan-2-yl)acetamide)-piperidin-4-one-HCl salt]
IC50 (HT3): > 5 µM
IC50 (HaCaT): > 2500 nM
IC50 (SiHa): 1000 nM
IC50 (CasKi): 300 nM
IC50 (HOK-16B): 750 nM
IC50 (FaDu): > 2500 nM
IC50 (C33A): > 5 µM

Structure (SMILES): CC(=O)N[C@@H](CCCCN)C(=O)N1C/C(=C\c2ccc(Cl)c(Cl)c2)C(=O)/C(=C/c2ccc(Cl)c(Cl)c2)C1.Cl [RA195Ac]
active caspase-3 (U266 cells): caused an increase in caspase-3 expression
TNFα-induced NFκB activation [1]: inhibited TNFα-induced NFκB activation
active caspase-3 (NCI-H929 cells): caused an increase in caspase-3 expression
proteasome inhibition by 4UbFL stabilization (relative potency) [2]: more potent than the parent molecule RA195
